By IC50 is commonly meant the concentration that inhibits the measured activity by half. What is called melting point is the temperature, or range, at which the solid turns liquid.

Several values for one entry are separate records, joined by “and”; a condition that tells them apart may be missing. Equal entries are not always repeated.

The values that follow come from publication PMC10254649, “Design, Synthesis, and Biological Evaluation of Potent and Selective Inhibitors of Ataxia Telangiectasia Mutated and Rad3-Related (ATR) Kinase for the Efficient Treatment of Cancer” (Molecules, 2023).

For data set [1], the target named is ATR (Homo sapiens, UniProt Q13535). The data set can be described thus: In vitro inhibitory activity against the ATR enzyme. Particulars: mean ± SD of two independent experiments; read-out: ATR IC50 ± SD. Type of data set: biochemical.
Data set [2] concerns LoVo xenografts. Kind of data set: LoVo tumor xenograft mouse model, antitumor efficacy and tolerability. It is filed as in vivo. Particulars: cisplatin 6 mg/kg twice a week, alone. Here is the method: Balb/c nude mice (18–22 g, female, 4 weeks old) were purchased from Hangzhou Medical College (Hangzhou, China). All mice were inoculated subcutaneously in the right flank with 5 × 10^6 LoVo cells to initiate tumor growth. When the mean tumor volume reached approximately 100 mm^3, all mice were randomly divided into 8 groups (n = 5 per group) based on body weight and volume. […] Cisplatin was administered twice a week at the indicated doses. Tumor size and animal weight were measured every 3 days. Tumor volume was calculated as tumor volume (cm^3) = (length × width^2)/2. Tumor inhibition rate (%) = (1 − mean tumor weight in the treatment group/mean tumor weight in the control group) × 100%. The results were obtained from 5 test mice (mean ± SD) and calculated using GraphPad 8.0 software.

Sequence of ATR (Q13535 whole entry): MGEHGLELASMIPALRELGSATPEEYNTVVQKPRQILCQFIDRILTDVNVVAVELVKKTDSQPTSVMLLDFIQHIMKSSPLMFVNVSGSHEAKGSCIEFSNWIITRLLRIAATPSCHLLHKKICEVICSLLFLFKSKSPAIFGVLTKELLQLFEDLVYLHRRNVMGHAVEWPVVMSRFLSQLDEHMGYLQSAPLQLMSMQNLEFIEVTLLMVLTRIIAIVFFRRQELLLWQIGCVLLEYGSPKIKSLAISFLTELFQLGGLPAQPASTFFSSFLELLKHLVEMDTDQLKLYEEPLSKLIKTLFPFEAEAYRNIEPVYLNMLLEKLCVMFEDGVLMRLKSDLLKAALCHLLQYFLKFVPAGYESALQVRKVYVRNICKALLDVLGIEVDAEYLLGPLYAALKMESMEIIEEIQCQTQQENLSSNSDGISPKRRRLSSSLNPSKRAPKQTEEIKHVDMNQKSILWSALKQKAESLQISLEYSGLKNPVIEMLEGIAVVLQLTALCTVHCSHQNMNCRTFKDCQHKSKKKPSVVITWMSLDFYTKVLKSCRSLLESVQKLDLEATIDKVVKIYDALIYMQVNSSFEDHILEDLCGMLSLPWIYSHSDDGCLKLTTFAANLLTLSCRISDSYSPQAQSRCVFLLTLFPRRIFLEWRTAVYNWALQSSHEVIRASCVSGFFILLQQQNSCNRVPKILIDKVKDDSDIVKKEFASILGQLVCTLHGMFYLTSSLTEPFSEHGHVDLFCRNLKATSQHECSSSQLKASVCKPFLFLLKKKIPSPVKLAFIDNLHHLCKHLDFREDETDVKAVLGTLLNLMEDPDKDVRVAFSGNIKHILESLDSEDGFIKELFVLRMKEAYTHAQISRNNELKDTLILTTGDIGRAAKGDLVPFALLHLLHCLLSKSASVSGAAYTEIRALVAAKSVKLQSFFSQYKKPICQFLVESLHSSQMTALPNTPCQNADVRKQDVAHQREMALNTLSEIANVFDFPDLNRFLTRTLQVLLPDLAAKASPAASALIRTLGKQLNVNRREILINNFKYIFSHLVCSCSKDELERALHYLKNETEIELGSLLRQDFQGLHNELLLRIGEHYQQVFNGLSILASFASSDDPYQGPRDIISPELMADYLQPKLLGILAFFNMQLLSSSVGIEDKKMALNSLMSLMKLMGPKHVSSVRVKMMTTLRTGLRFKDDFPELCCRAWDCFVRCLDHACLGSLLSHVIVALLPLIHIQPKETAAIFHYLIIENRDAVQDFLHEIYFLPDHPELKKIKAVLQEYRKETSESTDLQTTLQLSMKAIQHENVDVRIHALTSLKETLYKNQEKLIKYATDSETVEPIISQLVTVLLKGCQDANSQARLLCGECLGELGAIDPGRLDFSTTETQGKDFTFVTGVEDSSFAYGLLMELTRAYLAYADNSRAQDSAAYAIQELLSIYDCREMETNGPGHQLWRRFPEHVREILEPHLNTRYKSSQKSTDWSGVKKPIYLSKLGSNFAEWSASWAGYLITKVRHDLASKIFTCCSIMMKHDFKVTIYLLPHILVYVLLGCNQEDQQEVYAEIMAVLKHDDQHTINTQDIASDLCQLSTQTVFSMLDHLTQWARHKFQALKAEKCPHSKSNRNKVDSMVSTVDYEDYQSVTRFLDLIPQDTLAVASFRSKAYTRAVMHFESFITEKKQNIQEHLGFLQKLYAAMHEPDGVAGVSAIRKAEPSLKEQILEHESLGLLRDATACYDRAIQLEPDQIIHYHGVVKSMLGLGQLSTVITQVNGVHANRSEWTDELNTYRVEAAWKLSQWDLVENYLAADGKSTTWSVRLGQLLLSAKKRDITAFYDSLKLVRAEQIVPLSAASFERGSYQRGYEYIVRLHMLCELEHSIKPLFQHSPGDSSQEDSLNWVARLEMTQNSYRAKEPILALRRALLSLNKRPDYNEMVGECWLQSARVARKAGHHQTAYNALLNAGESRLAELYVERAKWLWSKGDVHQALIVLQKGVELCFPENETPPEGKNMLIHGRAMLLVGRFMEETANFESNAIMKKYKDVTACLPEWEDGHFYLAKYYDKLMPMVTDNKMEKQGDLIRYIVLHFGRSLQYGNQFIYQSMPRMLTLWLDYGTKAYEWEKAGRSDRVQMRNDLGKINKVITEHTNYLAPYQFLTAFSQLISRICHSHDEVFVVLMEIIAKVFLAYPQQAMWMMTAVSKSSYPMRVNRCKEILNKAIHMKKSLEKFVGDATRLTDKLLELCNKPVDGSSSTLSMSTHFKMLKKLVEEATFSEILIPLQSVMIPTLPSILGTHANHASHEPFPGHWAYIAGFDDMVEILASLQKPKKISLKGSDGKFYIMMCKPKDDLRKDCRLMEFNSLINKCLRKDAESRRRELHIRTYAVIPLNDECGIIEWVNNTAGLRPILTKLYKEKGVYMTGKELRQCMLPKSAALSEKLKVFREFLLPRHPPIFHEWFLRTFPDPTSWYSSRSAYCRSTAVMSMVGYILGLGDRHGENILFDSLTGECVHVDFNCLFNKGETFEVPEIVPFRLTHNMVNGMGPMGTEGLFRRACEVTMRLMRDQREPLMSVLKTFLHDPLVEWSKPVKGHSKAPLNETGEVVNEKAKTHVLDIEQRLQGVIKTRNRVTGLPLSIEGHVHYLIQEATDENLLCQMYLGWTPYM
Sequence of ATR (Q8WXE1 whole entry partner): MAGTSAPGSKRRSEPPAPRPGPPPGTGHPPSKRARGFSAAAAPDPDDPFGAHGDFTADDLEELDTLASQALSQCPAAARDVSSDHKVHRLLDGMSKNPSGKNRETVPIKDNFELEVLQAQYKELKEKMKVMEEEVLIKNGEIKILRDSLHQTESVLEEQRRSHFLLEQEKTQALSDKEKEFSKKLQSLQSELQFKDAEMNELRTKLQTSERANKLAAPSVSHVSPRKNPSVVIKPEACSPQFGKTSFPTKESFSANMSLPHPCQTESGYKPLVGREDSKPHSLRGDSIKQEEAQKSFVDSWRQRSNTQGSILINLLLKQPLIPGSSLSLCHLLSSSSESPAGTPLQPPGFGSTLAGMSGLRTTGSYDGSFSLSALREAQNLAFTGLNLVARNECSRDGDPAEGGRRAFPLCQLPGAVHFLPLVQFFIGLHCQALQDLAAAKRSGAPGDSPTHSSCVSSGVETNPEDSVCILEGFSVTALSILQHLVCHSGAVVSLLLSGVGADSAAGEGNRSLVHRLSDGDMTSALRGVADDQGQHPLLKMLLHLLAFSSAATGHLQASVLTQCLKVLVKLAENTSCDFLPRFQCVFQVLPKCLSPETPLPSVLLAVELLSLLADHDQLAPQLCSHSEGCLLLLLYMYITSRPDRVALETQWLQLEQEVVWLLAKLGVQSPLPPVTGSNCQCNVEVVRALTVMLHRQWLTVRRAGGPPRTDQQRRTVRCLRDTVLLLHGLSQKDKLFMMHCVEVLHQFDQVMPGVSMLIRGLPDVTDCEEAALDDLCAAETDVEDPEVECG

As to `CCS(=O)(=O)N1CCc2c(nc(-c3ccnc4[nH]ccc34)nc2N2CCOC[C@H]2C)C1` [ZH-1, (R)-4-(7-(ethylsulfonyl)-2-(1H-pyrrolo[2,3-b]pyridin-4-yl)-5,6,7,8-tetrahydropyrido[3,4-d]pyrimidin-4-yl)-3-methylmorpholine], the concentration for half-maximal inhibition (IC50) in data set [1] was 53.3 ± 1.08 nM. Same read-out and setting: the result for `CCC(=O)N1CCc2c(nc(-c3ccnc4[nH]ccc34)nc2N2CCOC[C@H]2C)C1` [ZH-2, (R)-1-(4-(3-methylmorpholino)-2-(1H-pyrrolo[2,3-b]pyridin-4-yl)-5,8-dihydropyrido[3,4-d]pyrimidin-7(6H)-yl)propan-1-one] reads 41.6 ± 1.38 nM; that for `CCCC(=O)N1CCc2c(nc(-c3ccnc4[nH]ccc34)nc2N2CCOC[C@H]2C)C1` [ZH-3, (R)-1-(4-(3-methylmorpholino)-2-(1H-pyrrolo[2,3-b]pyridin-4-yl)-5,8-dihydropyrido[3,4-d]pyrimidin-7(6H)-yl)butan-1-one], 42.5 ± 1.05 nM. As to `C[C@@H]1COCCN1c1nc(-c2ccnc3[nH]ccc23)nc2c1CCN(C(=O)CC#N)C2` [ZH-5, (R)-3-(4-(3-methylmorpholino)-2-(1H-pyrrolo[2,3-b]pyridinedin-4-yl)-5,8-dihydropyrido[3,4-d]pyrimidin-7(6H)-yl)-3-oxopropanenitrile], the melting point is > 250 °C. Also, the IC50 in data set [1] was 11.3 nM and 10.8 nM. Turning to `C[C@@H]1COCCN1c1nc(-c2ccnc3[nH]ccc23)nc2c1CCN(C(=O)CO)C2` [ZH-6, (R)-2-hydroxy-1-(4-(3-methylmorpholino)-2-(1H-pyrrolo[2,3-b]pyridinedin-4-yl)-5,8-dihydropyrido[3,4-d]pyrimidin-7(6H)-yl)ethan-1-one], the melting point fell in the range of 174 to 176 °C. The IC50 in data set [1] was 34.03 ± 0.27 nM. `C[C@@H]1COCCN1c1nc(-c2ccnc3[nH]ccc23)nc2c1CCN(C(=O)C1CCOCC1)C2` [ZH-8, (R)-(4-(3-methylmorpholino)-2-(1H-pyrrolo[2,3-b]pyridin-4-yl)-5,8-dihydropyrido[3,4-d]pyrimidin-7(6H)-yl)(tetrahydro-2H-pyran-4-yl)methanone]: in data set [1], the IC50 worked out at 27.5 ± 1.04 nM. `C[C@@H]1COCCN1c1nc(-c2ccnc3[nH]ccc23)nc2c1CCN(C(=O)C1CC(=O)C1)C2` [ZH-9, (R)-3-(4-(3-methylmorpholino)-2-(1H-pyrrolo[2,3-b]pyridinedin-4-yl)-5,6,7,8-tetrahydropyrido[3,4-d]pyrimidine-7-carbonyl)cyclobutan-1-one]: the melting point lay within 222 to 224 °C. Further, in data set [1], the IC50 stood at 16 ± 1.08 nM. `C[C@@H]1COCCN1c1nc(-c2ccnc3[nH]ccc23)nc2c1CCN(C(=O)C1CCC(=O)CC1)C2` [ZH-10, (R)-4-(4-(3-methylmorpholino)-2-(1H-pyrrolo[2,3-b]pyridinedin-4-yl)-5,6,7,8-tetrahydropyrido[3,4-d]pyrimidine-7-carbonyl)cyclohexan-1-one] gave a melting point of 240 to 242 °C. Also, in data set [1], the IC50 was 27.5 nM and 11.9 nM. Take `CCNC(=O)N1CCc2c(nc(-c3ccnc4[nH]ccc34)nc2N2CCOC[C@H]2C)C1` [ZH-11, (R)-N-ethyl-4-(3-methylmorpholino)-2-(1H-pyrrolo[2,3-b]pyridin-4-yl)-5,8-dihydropyrido[3,4-d]pyrimidine-7(6H)-carboxamide]: in data set [1], the IC50 amounted to 11.4 ± 0.25 nM. On the same count and under the same terms, the result for `C[C@@H]1COCCN1c1nc(-c2cccc3[nH]ccc23)nc2c1CCN(C(=O)C1CCOCC1)C2` [ZH-13, (R)-(2-(1H-indol-4-yl)-4-(3-methylmorpholino)-5,8-dihydropyrido[3,4-d]pyrimidin-7(6H)-yl)(tetrahydro-2H-pyran-4-yl)methanone] reads 214.66 ± 0.04 nM; that for `CCNC(=O)N1CCc2c(nc(-c3cccc4[nH]ccc34)nc2N2CCOC[C@H]2C)C1` [ZH-14, (R)-N-ethyl-2-(1H-indol-4-yl)-4-(3-methylmorpholino)-5,8-dihydropyrido[3,4-d]pyrimidine-7(6H)-carboxamide], 14.9 ± 0.29 nM.

In the case of `N.N.[Cl][Pt][Cl]` [cisplatin, reference compound], the “tumor growth inhibition (TGI)” value in data set [2] is 26.1%.
